Experimental data published in paper PMC10913065, “Rapid sp^3-Enriched Scaffold Generation via a Selective Aziridine Amide Ring-Opening Reaction” (The Journal of Organic Chemistry, 2024).
Converted amounts (≈) assume the structure as drawn.

Test: Kinetic solubility assay (adapted shake flask method, McIlvaine buffer)
Type: physicochemical
Details: pH 6.8, aqueous buffer, kinetic from dmso stock
Protocol: 10. Kinetic Solubility assay
Kinetic Solubility assay protocol
Adapted standard shake flask method to run in 1 mL 96-deep-well plates at a concentration of 100 µM in McIlvaine Buffer at pH values of 6.8 from 10 mM DMSO stock solutions.
Compounds are prepared in triplicate and incubated in buffer at room temperature for 18 hours while shaking at 700 RPM. After incubation the 96-deep-well plate is centrifuged at 5000 g for 10 minutes, half of the volume is transferred to another deep well plate and centrifuged again at 5000 g for 10 minutes. 200 µL are transferred from each well to a Greiner Bio-one 200 µL 96-well V-bottom plate and sealed. A six-point calibration curve is prepared for each compound ranging from 100 µM down to 0.5 µM. All samples are analyzed via UV-UHPLC on an Agilent 1290 Infinity (binary pump, auto-sampler, column compartment at 55 °C, and PDA) with a Phenomenex Kinetex EVO C18, 50 x 1 mm, 1.7 µm, 100 Å column, at 0.5 mL. Injections of 3 µL are analyzed with gradient elution using Milli-Q water with 0.05% trifluoroacetic acid (A1) and acetonitrile with 0.05% trifluoroacetic acid (B1) from 95:5 A1/B1 to 5:95 A1/B1 over 1.3 minutes with a 0.2 minute hold at 5:95 A1/B1. Wavelengths at 215 nm and 254 nm are monitored, peaks are integrated, and the peak area and peak height are used with linear regression analysis from the calibration curves to determine the solubility values.6 Kinetic Solubility assay data
A kinetic solubility for d, e, f, and g was calculated in the following Table.
Compound Kinetic solubility (µM, pH=6.8)
Table S7. Kinetic solubility for representative compounds.

[1] = pH=6.8, McIlvaine Buffer, 100 µM from 10 mM DMSO stock, room temperature, 18 hours, triplicate

Row | Structure (SMILES) | solubility kinetic at 18 h (at neutral pH) | solubility kinetic at 18 h [1]
1 | Cc1ccccc1O[C@H]1CCCNCC[C@@H]1NC(=O)c1ccccc1 [g] | 92.2 µM (≈ 31.2 µg/mL) | –
2 | Cc1ccccc1O[C@H]1CNC[C@@H]1NC(=O)c1ccccc1 [f] | 90.7 µM (≈ 26.9 µg/mL) | 79.07 ± 0.44 µM (≈ 23.4 µg/mL)
3 | Cc1ccccc1O[C@H]1CCNC[C@@H]1NC(=O)c1ccccc1 [e] | 79.1 µM (≈ 24.5 µg/mL) | 90.67 ± 0.32 µM (≈ 28.1 µg/mL)
4 | Cc1ccccc1Oc1ccccc1NC(=O)c1ccccc1 [d, reference compound] | 5.74 µM (≈ 1.74 µg/mL) | –
